Measurements: US12428415B2, “Matriptase 2 inhibitors and uses thereof” (Disc Medicine, Inc., priority 2018, dated 2025)

target: T1, Human Recombinant Matriptase 2 (Homo sapiens, UniProt Q8IU80); experiment: Matriptase 2 fluorescence based inhibition assay, Method B (50 mM TRIS pH 7.5, 150 mM NaCl, 0.01% gelatin); format: biochemical; details: 1 uM compound; Assay Used = B; read-out: Mar-2 % inhibition at 1 uM
T1 construct: purchased Enzo Life Sciences (an in-house preparation was also used) ALX-201-752-1
T1 sequence (Q8IU80 1-811): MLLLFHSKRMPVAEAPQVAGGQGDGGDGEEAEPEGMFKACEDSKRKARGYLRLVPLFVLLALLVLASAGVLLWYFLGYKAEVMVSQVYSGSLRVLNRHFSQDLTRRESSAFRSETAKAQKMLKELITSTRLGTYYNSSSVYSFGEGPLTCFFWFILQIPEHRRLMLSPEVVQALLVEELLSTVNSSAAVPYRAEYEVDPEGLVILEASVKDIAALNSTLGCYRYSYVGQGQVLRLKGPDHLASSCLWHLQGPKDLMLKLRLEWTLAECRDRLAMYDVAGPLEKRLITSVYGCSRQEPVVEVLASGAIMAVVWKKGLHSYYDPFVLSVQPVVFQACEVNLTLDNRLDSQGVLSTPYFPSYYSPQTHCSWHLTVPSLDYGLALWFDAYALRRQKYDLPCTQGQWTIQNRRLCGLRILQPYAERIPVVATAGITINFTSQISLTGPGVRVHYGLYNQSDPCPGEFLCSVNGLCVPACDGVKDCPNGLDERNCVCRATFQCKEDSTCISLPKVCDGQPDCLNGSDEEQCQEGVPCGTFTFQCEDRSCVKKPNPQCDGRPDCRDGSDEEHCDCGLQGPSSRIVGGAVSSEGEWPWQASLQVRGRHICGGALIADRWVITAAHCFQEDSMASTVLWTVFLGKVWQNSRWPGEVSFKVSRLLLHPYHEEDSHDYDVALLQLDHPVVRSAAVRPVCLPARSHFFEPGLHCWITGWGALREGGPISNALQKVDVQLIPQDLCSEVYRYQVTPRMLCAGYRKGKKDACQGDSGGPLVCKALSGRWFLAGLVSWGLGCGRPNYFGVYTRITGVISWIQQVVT
In short: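 Commercial (7 nM) or in-house (15 nM) enzyme preincubated 30 min with compound at 25° C, then 100 μM Boc-Gln-Ala-Arg-AMC added; fluorescence (Ex 360/Em 480 nm) read at 60 min. 1% DMSO final. IC50 from variable-slope sigmoidal fit of % inhibition.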

inhibition at 1 µM	SMILES
75 to 100%	N=C(N)c1ccc2cc(-c3nnc([C@H]4CC[C@H](N)CC4)o3)n(Cc3cccc4ccccc34)c2c1 [Compound I-525, 2-(5-((1r,4r)-4-aminocyclohexyl)-1,3,4-oxadiazol-2-yl)-1-(naphthalen-1-ylmethyl)-1H-indole-6-carboximidamide]
75 to 100%	N=C(N)c1ccc2cc(-c3nnc([C@H]4CC[C@H](N)CC4)s3)n(Cc3cccc4ccccc34)c2c1 [Compound I-526, 2-(5-((1r,4r)-4-aminocyclohexyl)-1,3,4-thiadiazol-2-yl)-1-(naphthalen-1-ylmethyl)-1H-indole-6-carboximidamide]
0 to 25%	NC(=O)c1ccc2cc(-c3nnc([C@H]4CC[C@H](N)CC4)s3)n(Cc3cccc4ccccc34)c2c1 [Compound I-527, 2-(5-((1r,4r)-4-aminocyclohexyl)-1,3,4-thiadiazol-2-yl)-1-(naphthalen-1-ylmethyl)-1H-indole-6-carboxamide]
25 to 50%	N=C(N)c1ccc2cc(-c3nc4c(s3)CCC(N)C4)n(Cc3cccc4ccccc34)c2c1 (centres unmarked) [Compound I-528, 2-(5-amino-4,5,6,7-tetrahydrobenzo[d]thiazol-2-yl)-1-(naphthalen-1-ylmethyl)-1H-indole-6-carboximidamide]
50 to 75%	N=C(N)c1ccc2cc(NC(=O)[C@H]3CC[C@H](N)CC3)n(Cc3cccc4ccccc34)c2c1 [Compound I-529, (1r,4r)-4-amino-N-(6-carbamimidoyl-1-(naphthalen-1-ylmethyl)-1H-indol-2-yl) cyclohexane-1-carboxamide]
0 to 25%	CC(C)(C)OC(=O)N[C@H]1CC[C@H](NC(=O)c2cc3ccc(CN)cc3n2Cc2cccc3ccccc23)CC1 [Compound I-530, tert-butyl ((1r,4r)-4-(6-(aminomethyl)-1-(naphthalen-1-ylmethyl)-1H-indole-2-carboxamido)cyclohexyl) carbamate]
50 to 75%	NCc1ccc2cc(C(=O)N[C@H]3CC[C@H](N)CC3)n(Cc3cccc4ccccc34)c2c1 [Compound I-531, N-((1r,4r)-4-aminocyclohexyl)-6-(aminomethyl)-1-(naphthalen-1-ylmethyl)-1H-indole-2-carboxamide]
25 to 50%	NCc1ccc2cc(C(=O)N[C@H]3CC[C@H](O)CC3)n(Cc3cccc4ccccc34)c2c1 [Compound I-532]
25 to 50%	NCc1ccc2cc(C(=O)NC3CCNCC3)n(Cc3cccc4ccccc34)c2c1 [Compound I-533]
25 to 50%	NCc1ccc2cc(C(=O)NCC3CCNCC3)n(Cc3cccc4ccccc34)c2c1 [Compound I-534]
25 to 50%	CN1CCC(NC(=O)c2cc3ccc(CN)cc3n2Cc2cccc3ccccc23)CC1 [Compound I-535]
0 to 25%	NCc1ccc2cc(C(=O)NCC3CCNCC3)n(-c3ccc4ccccc4c3)c2c1 [Compound I-537]
25 to 50%	NCc1ccc2cc(C(=O)O)n(Cc3cccc4ccccc34)c2c1 [Compound I-538, 6-(aminomethyl)-1-(naphthalen-1-ylmethyl)-1H-indole-2-carboxylic Acid]
25 to 50%	NCc1ccc2cc(C(=O)NC3CCCC(N)C3)n(Cc3cccc4ccccc34)c2c1 (centres unmarked) [Compound I-540]
0 to 25%	NCCCCNC(=O)c1cc2ccc(CN)cc2n1Cc1cccc2ccccc12 [Compound I-541]
75 to 100%	N=C(N)c1ccc2nc(C(=O)N[C@H]3CC[C@H](N)CC3)n(Cc3cccc4ccccc34)c2c1 [Compound I-542, N-((1r,4r)-4-aminocyclohexyl)-6-carbamimidoyl-1-(naphthalen-1-ylmethyl)-1H-benzo[d]imidazole-2-carboxamide]
25 to 50%	N=C(N)c1ccc2cc(C(=O)O)n(Cc3cc(Oc4ncccn4)cc4ccccc34)c2n1 [Compound I-544]

inhibition at 1 µM	SMILES
75 to 100%	CS(=O)(=O)Nc1cc(Cn2c(C(=O)O)cc3ccc(C(=N)N)cc32)c2ccccc2c1 [Compound I-546]
75 to 100%	N=C(N)c1ccc2cc(C(=O)NCCS(N)(=O)=O)n(Cc3cc(Oc4ncccn4)cc4ccccc34)c2c1 [Compound I-547]
25 to 50%	N=C(N)c1ccc2cc(C(=O)O)n(Cc3cc(S(N)(=O)=O)cc4ccccc34)c2c1 [Compound I-548]
25 to 50%	CCOC(=O)NC(=N)c1ccc2cc(C(=O)NC3CCN(C)CC3)n(Cc3cc(Oc4ncccn4)cc4ccccc34)c2c1 [Compound I-549]
0 to 25%	COC(=O)NCCOC(=O)c1cc2ccc(C(=N)NC(=O)OCC(C)C)cc2n1Cc1cc(Oc2ncccn2)cc2ccccc12 [Compound I-550]
0 to 25%	N=C(NC(=O)OCC(Cl)(Cl)Cl)c1ccc2cc(C(=O)O)n(Cc3cc(Oc4ncccn4)cc4ccccc34)c2c1 [Compound I-552]
25 to 50%	COC(=O)NCCOC(=O)c1cc2ccc(C(=N)N)cc2n1Cc1cc(Oc2ccccc2)cc2ccccc12 [Compound I-555]
25 to 50%	COC(=O)NCCOC(=O)c1cc2ccc(C(=N)N)cc2n1Cc1cc(S(=O)(=O)c2ccccc2)cc2ccccc12 [Compound I-556]
0 to 25%	CC(C)COC(=O)NC(=N)c1ccc2cc(C(=O)NC3CCN(C)CC3)n(Cc3cc(Oc4ncccn4)cc4ccccc34)c2c1 [Compound I-557]
0 to 25%	CCOC(=O)c1cc2ccc(/C(N)=N/C#N)cc2n1Cc1cc(Oc2ncccn2)cc2ccccc12 [Compound I-558, ethyl (Z)-6-(N′-cyanocarbamimidoyl)-1-((3-(pyrimidin-2-yloxy)naphthalen-1-yl)methyl)-1H-indole-2-carboxylate]
25 to 50%	CCOC(=O)NC(=N)c1ccc2cc(C(=O)OCC)n(Cc3cc(Oc4ncccn4)cc4ccccc34)c2c1 [Compound I-559]
25 to 50%	COC(=O)NC(=N)c1ccc2cc(C(=O)O)n(Cc3cc(Oc4ncccn4)cc4ccccc34)c2c1 [Compound I-561]
50 to 75%	CN1CCC(COC(=O)c2cc3ccc(C(=N)N)cc3n2Cc2cc(Oc3ncccn3)cc3ccccc23)CC1 [Compound I-562]
50 to 75%	N=C(N)c1ccc2cc(C(=O)O)n(Cc3cc(OCc4ncccn4)cc4ccccc34)c2c1 [Compound I-563]
75 to 100%	COC(=O)NCCNC(=O)c1cc2ccc(C(=N)N)cc2n1Cc1cc(Oc2ncccn2)cc2ccccc12 [Compound I-564]
75 to 100%	N=C(N)c1ccc2cc(C(=O)OCCO)n(Cc3cc(Oc4ncccn4)cc4ccccc34)c2c1 [Compound I-565]

SMILES	inhibition at 1 µM
CC(C)(C)OC(=O)NCc1ccc2cc(C(=O)O)n(Cc3cccc4ccccc34)c2c1 [Compound I-539, 6-(((tert-butoxycarbonyl)amino)methyl)-1-(naphthalen-1-ylmethyl)-1H-indole-2-carboxylic Acid]	0 to 25%

same assay, conditions: read-out: Mar-2 % inhibition at 1 uM

SMILES	inhibition at 1 µM
CN1CCC(NC(=O)c2cc3ccc(C(=N)NC(=O)Oc4ccc(F)cc4)cc3n2Cc2cc(Oc3ncccn3)cc3ccccc23)CC1 [Compound I-545]	25 to 50%
N=C(NC(=O)Oc1ccccc1)c1ccc2cc(C(=O)O)n(Cc3cc(Oc4ncccn4)cc4ccccc34)c2c1 [Compound I-551]	0 to 25%
CN1CCC(NC(=O)c2cc3ccc(C(=N)NC(=O)Oc4ccccc4)cc3n2Cc2cc(Oc3ncccn3)cc3ccccc23)CC1 [Compound I-553]	0 to 25%
COC(=O)NCCOC(=O)c1cc2ccc(C(=N)NC(=O)Oc3ccccc3)cc2n1Cc1cc(Oc2ncccn2)cc2ccccc12 [Compound I-554]	0 to 25%
